Test results: ChEMBL document CHEMBL4382204 (Eur J Med Chem, 2018)
Calls of active or inactive are those of the source. The calls are words filed in the database; no cut-off is given here.

Experiments:
[1] = Antiproliferative activity in mouse BAF3 cells after 72 hrs by CCK8 assay; format: cell-based
[2] = Selectivity ratio of GI50 for mouse BAF3 cells to GI50 for BCR/ABL T315I mutant (unknown origin) transfected in mouse BAF3 cells
[3] = target: Platelet-derived growth factor receptor alpha (Homo sapiens) (UniProt P16234); assay: Inhibition of wild type C-terminal FLAG-tagged human TEL fused PDGFRalpha (unknown origin) transfected in mouse BAF3 cells assessed as growth inhibition after 72 hrs by CCK8 assay; format: cell-based
[4] = target: Platelet-derived growth factor receptor beta (Homo sapiens) (UniProt P09619); assay: Inhibition of wild type C-terminal FLAG-tagged human TEL fused PDGFRbeta (unknown origin) transfected in mouse BAF3 cells assessed as growth inhibition after 72 hrs by CCK8 assay; format: cell-based
[5] = target: Mast/stem cell growth factor receptor Kit (Homo sapiens) (UniProt P10721); assay: Inhibition of wild type C-terminal FLAG-tagged human TEL fused cKIT (unknown origin) transfected in mouse BAF3 cells assessed as growth inhibition after 72 hrs by CCK8 assay; format: cell-based
[6] = target: Receptor-type tyrosine-protein kinase FLT3 (Homo sapiens) (UniProt P36888); assay: Inhibition of wild type C-terminal FLAG-tagged human TEL fused FLT3 (unknown origin) transfected in mouse BAF3 cells assessed as growth inhibition after 72 hrs by CCK8 assay; format: cell-based
[7] = target: Fibroblast growth factor receptor 4 (Homo sapiens) (UniProt P22455); assay: Inhibition of wild type C-terminal FLAG-tagged human TEL fused FGFR4 (unknown origin) transfected in mouse BAF3 cells assessed as growth inhibition after 72 hrs by CCK8 assay; format: cell-based
[8] = target: Ephrin type-A receptor 2 (Homo sapiens) (UniProt P29317); assay: Inhibition of wild type C-terminal FLAG-tagged human TEL fused EPHA2 (unknown origin) transfected in mouse BAF3 cells assessed as growth inhibition after 72 hrs by CCK8 assay; format: cell-based
[9] = target: Cytoplasmic tyrosine-protein kinase BMX (Homo sapiens) (UniProt P51813); assay: Inhibition of wild type C-terminal FLAG-tagged human TEL fused BMX (unknown origin) transfected in mouse BAF3 cells assessed as growth inhibition after 72 hrs by CCK8 assay; format: cell-based
KU812 cell line = assay: Antiproliferative activity in human KU812 cells after 72 hrs by CCK8 assay; format: functional; details: KU812, 72 h
MEC1 = assay: Antiproliferative activity in human MEC1 cells after 72 hrs by CCK8 assay; format: functional; details: MEC1, 72 h
[10] = Antiproliferative activity in CHO cells after 72 hrs by CCK8 assay; format: cell-based, Cricetulus griseus; details: chinese hamster
[11] = target: T1, Bcr/Abl fusion protein (Homo sapiens) (UniProt P00519+P11274); assay: (§1) Inhibition of BCR/ABL in human KU812 cells assessed as inhibition of BCR/ABL autophosphorylation at Y245 site after 1 hr by immunoblotting analysis; format: cell-based
Bcr/Abl fusion protein [12] = target: Bcr/Abl fusion protein (Homo sapiens, UniProt P00519); assay: as §1; format: cell-based
[13] = target: T1, Bcr/Abl fusion protein (Homo sapiens); assay: Inhibition of BCR/ABL in human K562 cells assessed as inhibition of STAT5 phosphorylation up to 0.3 uM after 1 hr by immunoblotting analysis; format: cell-based
[14] = target: T1, Bcr/Abl fusion protein (Homo sapiens); assay: Inhibition of BCR/ABL in human K562 cells assessed as inhibition of CrkL phosphorylation up to 0.3 uM after 1 hr by immunoblotting analysis; format: cell-based
[15] = target: T1, Bcr/Abl fusion protein (Homo sapiens); assay: Inhibition of BCR/ABL in human MEG01 cells assessed as inhibition of STAT5 phosphorylation up to 0.3 uM after 1 hr by immunoblotting analysis; format: cell-based
[16] = target: T1, Bcr/Abl fusion protein (Homo sapiens); assay: Inhibition of BCR/ABL in human MEG01 cells assessed as inhibition of ErK phosphorylation up to 0.3 uM after 1 hr by immunoblotting analysis; format: cell-based
[17] = target: T1, Bcr/Abl fusion protein (Homo sapiens); assay: Inhibition of BCR/ABL in human KU812 cells assessed as inhibition of CrkL phosphorylation up to 0.3 uM after 1 hr by immunoblotting analysis; format: cell-based
Bcr/Abl fusion protein [18] = target: T2, Bcr/Abl fusion protein (Homo sapiens, UniProt P00519, T315I); assay: Inhibition of BCR/ABL T315I mutant (unknown origin) expressed in mouse BAF3 cells assessed as inhibition of STAT5 phosphorylation after 1 hr by immunoblotting analysis; format: cell-based
Bcr/Abl fusion protein [19] = target: T2, Bcr/Abl fusion protein; assay: Inhibition of BCR/ABL T315I mutant (unknown origin) expressed in mouse BAF3 cells assessed as inhibition of CrkL phosphorylation after 1 hr by immunoblotting analysis; format: cell-based
Bcr/Abl fusion protein [20] = target: T2, Bcr/Abl fusion protein; assay: Inhibition of BCR/ABL T315I mutant (unknown origin) expressed in mouse BAF3 cells assessed as inhibition of ErK phosphorylation after 1 hr by immunoblotting analysis; format: cell-based
MEG-01 [21] = assay: Induction of apoptosis in human MEG01 cells assessed as cleaved PARP level up to 0.3 uM after 24 hrs by immunoblotting analysis; format: functional, cell-based
BaF3 [22] = assay: Induction of apoptosis in mouse BAF3 cells expressing BCR/ABL T315I mutant assessed as cleaved PARP level up to 0.3 uM after 24 hrs by immunoblotting analysis; format: functional, cell-based
MEG-01 [23] = assay: Cell cycle arrest in human MEG01 cells assessed as accumulation at G0/G1 phase up to 0.3 uM after 24 hrs by propidium iodide/RNase staining based flow cytometric analysis; format: functional
[24] = AUC (0 to t) in mouse at 10 mg/kg, po by LC-MS/MS analysis; format: ADME, organism-based; details: in vivo
[25] = Oral bioavailability in mouse at 10 mg/kg by LC-MS/MS analysis; format: ADME, organism-based; details: in vivo
[26] = Half life in Sprague-Dawley rat at 1 mg/kg, iv by LC-MS/MS analysis; format: ADME, organism-based; details: in vivo
[27] = AUC (0 to t) in Sprague-Dawley rat at 1 mg/kg, iv by LC-MS/MS analysis; format: ADME, organism-based; details: in vivo
BaF3 [28] = assay: Antitumor activity against mouse BAF3 cells expressing BCR/ABL T315I mutant allografted in po dosed nu/nu mouse assessed as tumor growth inhibition administered daily via gavage for 13 days; format: functional, organism-based
[29] = target: T3, Tyrosine-protein kinase ABL1 (Homo sapiens, UniProt P00519); assay: Inhibition of inactive wild type His-tagged ABL (229 to 500 residues) (unknown origin) expressed in baculovirus infected sf9 cells assessed as reduction in autophosphorylation preincubated for 60 mins followed by ATP addition measured after 8 hrs by ADP-Glo assay
[30] = target: T3, Tyrosine-protein kinase ABL1; assay: Inhibition of active wild type His-tagged ABL (229 to 500 residues) (unknown origin) expressed in baculovirus infected sf9 cells using ABLtide as substrate after 1 hr by ADP-Glo assay
[31] = target: Tyrosine-protein kinase ABL1 (Homo sapiens, UniProt P00519, T315I); assay: Inhibition of active wild type His-tagged ABL T315I mutant (229 to 500 residues) (unknown origin) expressed in baculovirus infected sf9 cells using ABLtide as substrate after 1 hr by ADP-Glo assay
[32] = system: Bcr/Abl fusion protein (Homo sapiens), P00519+P11274 [Q252H]; details: BaF3

Sequence of Receptor-type tyrosine-protein kinase FLT3 (Homo sapiens) (P36888 whole entry, the tested form may be a part): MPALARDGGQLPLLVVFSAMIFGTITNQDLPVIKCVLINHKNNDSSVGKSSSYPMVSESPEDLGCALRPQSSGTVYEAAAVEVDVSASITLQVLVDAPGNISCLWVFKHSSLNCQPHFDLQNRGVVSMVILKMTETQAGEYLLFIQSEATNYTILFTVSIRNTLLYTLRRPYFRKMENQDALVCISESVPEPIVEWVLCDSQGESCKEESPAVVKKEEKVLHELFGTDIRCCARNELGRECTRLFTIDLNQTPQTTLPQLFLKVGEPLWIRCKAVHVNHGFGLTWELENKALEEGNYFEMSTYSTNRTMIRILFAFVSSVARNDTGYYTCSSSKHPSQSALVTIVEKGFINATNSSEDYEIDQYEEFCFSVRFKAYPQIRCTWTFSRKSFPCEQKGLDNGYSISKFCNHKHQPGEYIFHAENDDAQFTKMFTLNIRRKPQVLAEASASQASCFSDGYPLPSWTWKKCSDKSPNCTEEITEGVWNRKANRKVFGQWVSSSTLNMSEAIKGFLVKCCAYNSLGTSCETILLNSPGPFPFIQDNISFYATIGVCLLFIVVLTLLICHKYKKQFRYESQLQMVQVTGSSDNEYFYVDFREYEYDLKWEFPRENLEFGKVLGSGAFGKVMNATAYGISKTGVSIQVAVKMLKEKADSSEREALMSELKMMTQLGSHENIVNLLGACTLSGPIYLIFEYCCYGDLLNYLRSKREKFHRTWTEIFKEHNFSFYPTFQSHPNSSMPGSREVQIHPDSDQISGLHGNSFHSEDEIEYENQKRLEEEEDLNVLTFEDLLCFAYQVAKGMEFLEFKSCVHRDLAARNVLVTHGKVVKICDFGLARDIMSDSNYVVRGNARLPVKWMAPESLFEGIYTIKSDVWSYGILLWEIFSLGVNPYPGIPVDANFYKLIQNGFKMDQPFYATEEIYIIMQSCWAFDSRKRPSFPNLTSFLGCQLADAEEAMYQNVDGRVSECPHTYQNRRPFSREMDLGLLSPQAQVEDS
Sequence of Cytoplasmic tyrosine-protein kinase BMX (Homo sapiens) (P51813 whole entry, the tested form may be a part): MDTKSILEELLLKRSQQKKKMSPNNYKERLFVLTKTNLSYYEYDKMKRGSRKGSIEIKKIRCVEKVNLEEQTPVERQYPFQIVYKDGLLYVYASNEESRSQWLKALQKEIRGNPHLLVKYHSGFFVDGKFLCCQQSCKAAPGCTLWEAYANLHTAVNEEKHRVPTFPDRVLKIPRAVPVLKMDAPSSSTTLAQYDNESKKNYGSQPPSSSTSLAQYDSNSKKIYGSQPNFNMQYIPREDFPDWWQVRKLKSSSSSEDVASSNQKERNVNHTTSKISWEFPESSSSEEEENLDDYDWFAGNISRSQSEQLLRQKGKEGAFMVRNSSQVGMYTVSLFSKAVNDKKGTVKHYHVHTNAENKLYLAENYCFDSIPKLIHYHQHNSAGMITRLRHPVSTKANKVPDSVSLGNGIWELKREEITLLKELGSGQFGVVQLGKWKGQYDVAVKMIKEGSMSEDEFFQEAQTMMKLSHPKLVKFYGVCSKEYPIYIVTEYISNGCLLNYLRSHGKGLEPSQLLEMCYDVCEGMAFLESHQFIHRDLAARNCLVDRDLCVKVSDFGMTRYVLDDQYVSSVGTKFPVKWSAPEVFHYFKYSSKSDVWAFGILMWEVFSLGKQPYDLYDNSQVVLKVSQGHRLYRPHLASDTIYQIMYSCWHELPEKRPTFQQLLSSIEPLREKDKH
Sequence of Ephrin type-A receptor 2 (Homo sapiens) (P29317 whole entry, the tested form may be a part): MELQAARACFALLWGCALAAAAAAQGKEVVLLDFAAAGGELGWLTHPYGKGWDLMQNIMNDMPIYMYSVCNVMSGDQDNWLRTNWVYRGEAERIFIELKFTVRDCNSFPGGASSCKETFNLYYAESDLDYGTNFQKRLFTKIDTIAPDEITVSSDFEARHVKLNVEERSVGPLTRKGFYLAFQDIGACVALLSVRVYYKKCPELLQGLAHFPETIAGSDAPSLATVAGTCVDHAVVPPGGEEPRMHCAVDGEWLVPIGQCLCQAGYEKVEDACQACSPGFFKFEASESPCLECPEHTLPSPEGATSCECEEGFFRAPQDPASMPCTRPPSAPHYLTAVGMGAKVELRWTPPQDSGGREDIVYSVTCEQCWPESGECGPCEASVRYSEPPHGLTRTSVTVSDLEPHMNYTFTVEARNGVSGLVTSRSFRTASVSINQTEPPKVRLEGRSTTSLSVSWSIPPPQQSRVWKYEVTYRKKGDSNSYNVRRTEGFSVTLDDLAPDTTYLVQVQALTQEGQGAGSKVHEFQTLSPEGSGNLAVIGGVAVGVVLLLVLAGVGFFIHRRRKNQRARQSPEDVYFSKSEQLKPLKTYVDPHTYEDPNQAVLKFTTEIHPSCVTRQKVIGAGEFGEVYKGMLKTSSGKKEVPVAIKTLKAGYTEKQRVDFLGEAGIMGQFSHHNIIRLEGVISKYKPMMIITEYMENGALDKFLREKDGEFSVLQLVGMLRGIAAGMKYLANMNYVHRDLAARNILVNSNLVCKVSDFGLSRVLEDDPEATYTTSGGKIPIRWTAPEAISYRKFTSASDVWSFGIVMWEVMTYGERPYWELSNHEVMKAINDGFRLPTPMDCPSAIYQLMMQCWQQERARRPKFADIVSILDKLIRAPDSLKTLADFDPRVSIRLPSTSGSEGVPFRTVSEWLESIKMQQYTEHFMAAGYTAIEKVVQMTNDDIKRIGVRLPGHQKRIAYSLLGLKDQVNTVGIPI
Sequence of Platelet-derived growth factor receptor beta (Homo sapiens) (P09619 whole entry, the tested form may be a part): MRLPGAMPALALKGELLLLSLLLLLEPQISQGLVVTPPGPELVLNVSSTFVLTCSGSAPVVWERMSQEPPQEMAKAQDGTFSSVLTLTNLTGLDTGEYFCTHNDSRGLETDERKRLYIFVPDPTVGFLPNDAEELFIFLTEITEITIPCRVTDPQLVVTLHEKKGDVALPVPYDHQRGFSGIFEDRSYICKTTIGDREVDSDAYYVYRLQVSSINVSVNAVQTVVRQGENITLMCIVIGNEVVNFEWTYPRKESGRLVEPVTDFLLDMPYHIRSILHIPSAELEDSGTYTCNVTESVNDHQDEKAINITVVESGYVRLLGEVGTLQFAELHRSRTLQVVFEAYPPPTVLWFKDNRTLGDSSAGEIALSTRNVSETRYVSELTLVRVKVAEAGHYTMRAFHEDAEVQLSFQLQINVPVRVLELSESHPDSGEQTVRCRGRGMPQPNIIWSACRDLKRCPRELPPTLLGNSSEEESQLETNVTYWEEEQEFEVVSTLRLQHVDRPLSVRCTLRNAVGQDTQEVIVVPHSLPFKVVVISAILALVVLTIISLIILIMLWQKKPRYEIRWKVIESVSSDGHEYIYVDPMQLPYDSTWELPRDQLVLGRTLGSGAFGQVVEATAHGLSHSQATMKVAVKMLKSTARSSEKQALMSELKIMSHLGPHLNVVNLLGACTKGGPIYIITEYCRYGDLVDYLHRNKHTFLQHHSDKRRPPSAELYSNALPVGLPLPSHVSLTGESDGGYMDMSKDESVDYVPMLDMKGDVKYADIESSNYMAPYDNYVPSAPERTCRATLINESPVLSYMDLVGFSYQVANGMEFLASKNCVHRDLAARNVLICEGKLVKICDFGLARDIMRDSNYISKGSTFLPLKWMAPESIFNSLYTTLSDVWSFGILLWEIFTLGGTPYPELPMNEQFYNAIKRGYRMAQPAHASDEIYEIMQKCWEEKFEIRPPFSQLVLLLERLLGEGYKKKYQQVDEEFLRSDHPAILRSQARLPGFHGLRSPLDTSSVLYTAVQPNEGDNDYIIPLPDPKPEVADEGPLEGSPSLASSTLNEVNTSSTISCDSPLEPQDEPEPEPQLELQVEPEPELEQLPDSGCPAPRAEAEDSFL
Sequence of Mast/stem cell growth factor receptor Kit (Homo sapiens) (P10721 whole entry, the tested form may be a part): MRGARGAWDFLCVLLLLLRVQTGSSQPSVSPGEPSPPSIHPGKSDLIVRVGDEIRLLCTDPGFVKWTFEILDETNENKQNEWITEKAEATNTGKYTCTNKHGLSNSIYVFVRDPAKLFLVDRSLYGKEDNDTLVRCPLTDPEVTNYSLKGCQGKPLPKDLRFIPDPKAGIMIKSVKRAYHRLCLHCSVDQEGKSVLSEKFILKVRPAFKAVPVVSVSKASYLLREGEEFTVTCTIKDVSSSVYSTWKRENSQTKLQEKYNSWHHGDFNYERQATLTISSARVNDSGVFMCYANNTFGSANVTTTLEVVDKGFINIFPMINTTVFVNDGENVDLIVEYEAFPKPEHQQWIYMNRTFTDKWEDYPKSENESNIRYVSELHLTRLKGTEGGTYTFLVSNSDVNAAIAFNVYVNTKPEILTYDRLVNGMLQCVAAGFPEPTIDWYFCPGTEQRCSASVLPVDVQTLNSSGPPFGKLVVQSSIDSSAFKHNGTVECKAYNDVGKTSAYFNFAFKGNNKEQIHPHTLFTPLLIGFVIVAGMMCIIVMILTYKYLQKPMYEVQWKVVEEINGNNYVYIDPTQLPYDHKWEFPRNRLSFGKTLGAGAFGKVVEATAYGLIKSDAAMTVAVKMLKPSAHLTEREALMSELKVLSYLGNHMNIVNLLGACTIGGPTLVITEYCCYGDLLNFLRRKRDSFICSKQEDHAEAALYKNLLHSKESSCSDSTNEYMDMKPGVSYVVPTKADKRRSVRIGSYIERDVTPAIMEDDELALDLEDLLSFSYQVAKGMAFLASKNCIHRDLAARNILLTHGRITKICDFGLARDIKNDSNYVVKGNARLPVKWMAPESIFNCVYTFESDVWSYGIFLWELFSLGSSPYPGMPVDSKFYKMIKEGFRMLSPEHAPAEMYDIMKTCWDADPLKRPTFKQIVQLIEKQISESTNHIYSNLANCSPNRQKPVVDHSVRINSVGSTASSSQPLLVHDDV

Compound: CN1CCN(Cc2ccc(NC(=O)CCSc3ccc4c(/C=C/c5ccccn5)n[nH]c4c3)cc2C(F)(F)F)CC1
- GI50 at 72 h [1]: 2.48 µM
- RatioGI50 [2]: 400
- GI50 [3]: 0.002 µM
- GI50 [4]: 0.008 µM
- GI50 [5]: 0.033 µM
- GI50 [6]: 0.004 µM
- GI50 [7]: 0.075 µM
- GI50 [8]: 0.12 µM
- GI50 [9]: 2.34 µM
- GI50 (KU812 cell line): 0.003 µM
- GI50 (MEC1): 0.5 µM
- GI50 at 72 h [10]: 1.12 µM
- inhibition [11]: Dose-dependent effect
- EC50 (Bcr/Abl fusion protein [12]): < 0.03 µM
- inhibition [13]: Active
- inhibition [14]: Active
- inhibition [15]: Active
- inhibition [16]: Active
- inhibition [17]: Active
- EC50 (Bcr/Abl fusion protein [18]): < 0.01 µM
- EC50 (Bcr/Abl fusion protein [19]): < 0.01 µM
- EC50 (Bcr/Abl fusion protein [20]): < 0.01 µM
- Activity (MEG-01 [21]): Active
- Activity (BaF3 [22]): Active
- Activity (MEG-01 [23]): Active
- AUC(0-t) [24]: 225 ng·h/mL
- bioavailability [25]: 14.4%
- half-life [26]: 2.3 h
- AUC(0-t) [27]: 192 ng·h/mL
- TGI (BaF3 [28]): Dose-dependent effect
- IC50 [29]: 0.002 µM
- IC50 [30]: 0.017 µM
- IC50 [31]: 0.0002 µM
- GI50 [32]: 0.015 µM
